In patent US12391641B2, “Prostaglandin EP4 receptor antagonist compounds” (NXERA PHARMA UK LIMITED, priority 2019, dated 2025):

Target: T1, Human prostaglandin E2 receptor 4 (EP4) (Homo sapiens, UniProt P35408)
T1 construct: expressed in transfected cells; host or cells: HEK293 cells transduced with EP4 BacMam virus
Assay: cAMP Gs Functional Assay (HTRF cAMP dynamic-2), antagonism of PGE2
Assay type: cell-based
Details: HEK293 cells transfected with EP4 BacMam virus; PGE2 challenge at EC80 (7 nM); pIC50 converted to functional pKb with a modified Cheng Prussoff equation; read-out: Human EP4 fpKb (converted)
Description: Cloning, Baculovirus generation, large scale infection of HEK293 cells and membrane preparation: Human prostaglandin E2 receptor 4 (EP4) was cloned into pBacMam expression vector (GeneScript, UK). Transposition of EP4 DNA was performed using Invitrogen's Bac-to-Bac Baculovirus Expression Systems. P0 baculovirus was generated by transfecting SF9 Cells with bacmid DNA using Cellfectin II transfection reagent (ThermoFisher Scientific, UK, catalog number 10362-100). Following P0 generation P1 virus was then generated ready for large scale infection and membrane preparation. HEK293 cells were grown in DMEM+Glutamax, supplemented with 10% heat inactivated fetal bovine serum (FBS). Cells were infected at a seeding density of 3.5 million cells/mL in 500 cm^3 flasks at 5% v/v EP4 Bacman. Expression was carried out over 36 hr period at 37° C. with 5% CO2. The cells were removed using PBS and a cell scrapper. The cell culture was centrifuged at 2500 RPM for 10 mins at 4° C. The supernatant was then poured off and the pellet stored at −80° C. The pellet was defrosted and re-suspended in 15 mL of homogenising buffer (20 mM HEPES, 10 mM EDTA, pH 7.4). Then homogenised in mechanical homogeniser (VMR) for 10 seconds. The membrane was centrifuged in centrifuge tubes at 40,000 g for 15 mins at 4° C. The supernatant was poured away and re-suspended in 15 mL of homogenising buffer. Homogenised for 20 seconds. The membrane was centrifuged at 40,000 g for 45 mins at 4° C. The membrane was re-suspended in 3 mL of storage buffer (20 mM HEPES, 0.1 mM EDTA, pH 7.4) mixing well. The resulting membranes were then stored at −80° C.
cAMP Gs Functional Assay: cAMP production following EP4 receptor activation was determined using the Homogeneous Time-Resolved Fluorescence (HTRF) cAMP dynamic-2 assay (Cisbio, France). HEK293 cells were transfected using a 0.5% EP4 Bacman virus for 36 hours, before dissociating the cells, and freezing at […].
On the day of testing, increasing concentration of test compounds, alongside positive controls (1 uM ONO-AE3-208) and negative control (DMSO (Sigma-Aldrich, UK) were added to a ProxiPlate-384 Plus, White 384-shallow well Mircoplate, (PerkinElmer, USA) using the ECHO dispense.
Cells were defrosted in a water bath and resuspended in DMEM supplemented with 10% FBS before centrifuging at 1200 RPM for 5 mins to form a pellet. The pellet was resuspended in assay buffer (DMEM+0.5 mM IBMX (Tocris, Abingdon, UK, Catalog Number 2845)) to a 1×10^6 cells/mL. Cell suspension, for a final assay concentration of 5000 cell/well was added using the multidrop to the pre-dispensed assay plate. The plate was then incubated at 37° C. for 30 mins, with 5% CO2. After incubation, EC80 concentration (7 nM) of PGE2 (EP4 agonist) was added to the plate. In parallel, a PGE2 dose-response curve was dispense to a separate plate. Assay buffer was then dispensed on top. The cAMP production was determined as manufacturer's instructions, before plates were read on a PheraStar fluorescence plate reader (BMG LabTech, Germany).
The pIC50 was converted to a functional pKb value using a modified Cheng Prussoff equation where Kd=agonist EC50 and Lhot=agonist challenge concentration;

T1 sequence (P35408 whole entry): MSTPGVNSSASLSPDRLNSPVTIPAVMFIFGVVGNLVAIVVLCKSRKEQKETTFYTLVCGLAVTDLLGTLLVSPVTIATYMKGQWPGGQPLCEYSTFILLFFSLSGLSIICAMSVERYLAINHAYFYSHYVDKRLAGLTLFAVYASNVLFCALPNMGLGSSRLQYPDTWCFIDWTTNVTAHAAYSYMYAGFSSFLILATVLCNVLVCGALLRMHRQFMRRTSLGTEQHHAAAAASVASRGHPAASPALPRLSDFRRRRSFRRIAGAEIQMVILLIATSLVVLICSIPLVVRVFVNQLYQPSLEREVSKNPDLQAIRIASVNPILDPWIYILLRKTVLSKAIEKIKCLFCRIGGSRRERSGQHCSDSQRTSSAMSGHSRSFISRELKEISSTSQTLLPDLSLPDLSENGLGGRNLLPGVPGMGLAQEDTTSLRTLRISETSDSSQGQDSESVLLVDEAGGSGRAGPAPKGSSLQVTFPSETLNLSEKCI

Ki [nM] | SMILES
0.229 | CC(C)[C@@H](OCc1cccc(C2CC2)c1)C(=O)N[C@@H](C)c1ccc(C(=O)O)cc1 [Example 39, 4-((S)-1-((R)-2-((3-cyclopropylbenzyl)oxy)-3-methylbutanamido)ethyl)benzoic acid]
0.288 | CC(C)[C@@H](OCc1cccc(C(F)(F)F)c1)C(=O)N[C@@H](C)c1ccc(C(=O)O)cc1 [Example 15, 4-((S)-1-((R)-3-methyl-2-((3-(trifluoromethyl)benzyl)oxy)butanamido)ethyl)benzoic acid]
0.0955 | CC(C)[C@@H](OCc1cccc(OC(F)(F)F)c1)C(=O)N[C@@H](C)c1ccc(C(=O)O)cc1 [Example 20, 4-((S)-1-((R)-3-methyl-2-((3-(trifluoromethoxy)benzyl)oxy)butanamido)ethyl)benzoic acid]
20.9 | CC(C)[C@@H](OCc1ccc(C(F)F)cn1)C(=O)N[C@@H](C)c1ccc(C(=O)O)cc1 [Example 34, 4-((S)-1-((R)-2-((5-(difluoromethyl)pyridin-2-yl)methoxy)-3-methylbutanamido)ethyl)benzoic acid]
0.0871 | CC(C)[C@@H](OCc1cccc(OC(F)F)c1)C(=O)N[C@@H](C)c1ccc(-c2nnn[nH]2)cc1 [Example 82, (R)—N—((S)-1-(4-(1H-tetrazol-5-yl)phenyl)ethyl)-2-((3-(difluoromethoxy)benzyl)oxy)-3-methylbutanamide]
2.24 | CC(C)[C@@H](OCc1ccc(F)cc1)C(=O)NC1(c2ccc(C(=O)O)cc2)CC1 [Example 31, (R)-4-(1-(2-((4-fluorobenzyl)oxy)-3-methylbutanamido)cyclopropyl)benzoic acid]
6.92 | CC(C)[C@@H](OCc1ccc(F)cc1)C(=O)NC1(c2ccc(-c3nnn[nH]3)cc2)CC1 [Example 70, (R)—N-(1-(4-(1H-tetrazol-5-yl)phenyl)cyclopropyl)-2-((4-fluorobenzyl)oxy)-3-methylbutanamide]
0.195 | CC(C)[C@@H](OCc1cccc(C2CC2)c1)C(=O)NC1(c2ccc(-c3nnn[nH]3)cc2)CC1 [Example 80, (R)-2-((3-cyclopropylbenzyl)oxy)-N-(1-(4-(2,3-dihydro-1H-tetrazol-5-yl)phenyl)cyclopropyl)-3-methylbutanamide]
> 12900 | CC(C)[C@@H](OCc1cccc(OC(F)(F)F)c1)C(=O)NC1(c2ccc(C(=O)O)cc2)CC1 [Example 58, (R)-4-(1-(3-methyl-2-((3-(trifluoromethoxy)benzyl)oxy)butanamido)cyclopropyl)benzoic acid]
182 | CC(C)[C@@H](OCc1ccc(C(F)(F)F)cc1)C(=O)NC1(c2ccc(C(=O)O)cc2)CCC1 [Example 73, (R)-4-(1-(3-methyl-2-((4-(trifluoromethyl)benzyl)oxy)butanamido)cyclobutyl)benzoic acid]
64.6 | CC(C)[C@@H](OCc1ccc(C(F)(F)F)cc1)C(=O)N[C@@H](C)c1ccc(C(=O)NS(C)(=O)=O)cc1 [Example 53, 4-((S)-1-((R)-3-methyl-2-((4-(trifluoromethyl)benzyl)oxy)butanamido)ethyl)-N-(methylsulfonyl)benzamide]
417 | CC(O[C@@H](C(=O)N[C@@H](C)c1ccc(C(=O)O)cc1)C(C)C)c1ccc(C(F)(F)F)cc1 (mixture of isomers) [Example 51, 4-((1S)-1-((2R)-3-methyl-2-(1-(4-(trifluoromethyl)phenyl)ethoxy)butanamido)ethyl)benzoic acid]
0.562 | CC(C)[C@@H](OCc1cc(OC(F)F)ccn1)C(=O)NC1(c2ccc(C(=O)O)cc2)CC1 [Example 68, (R)-4-(1-(2-((4-(difluoromethoxy)pyridin-2-yl)methoxy)-3-methylbutanamido)cyclopropyl)benzoic acid]
0.589 | CC(C)[C@@H](OCc1cccc(OC(F)F)c1)C(=O)NC1(c2ccc(-c3nnn[nH]3)cc2)CC1 [Example 72, (R)—N-(1-(4-(1H-tetrazol-5-yl)phenyl)cyclopropyl)-2-((3-(difluoromethoxy)benzyl)oxy)-3-methylbutanamide]
12.6 | O=C(O)c1ccc(C2(NC(=O)C(OCc3ccc(F)c(F)c3)C3CCC3)CC2)cc1 (centres unmarked) [Example 97, 4-(1-(2-cyclobutyl-2-((3,4-difluorobenzyl)oxy)acetamido)cyclopropyl)benzoic acid]
12.9 | CC(C)[C@@H](OCc1ccccc1)C(=O)N[C@@H](C)c1ccc(C(=O)O)cc1 [Example 19, 4-((S)-1-((R)-2-(benzyloxy)-3-methylbutanamido)ethyl)benzoic acid]
47.9 | CC(C)[C@@H](OCc1ccc(C(F)(F)F)cc1)C(=O)NC(C)(C)c1ccc(C(=O)O)cc1 [Example 64, (R)-4-(2-(3-methyl-2-((4-(trifluoromethyl)benzyl)oxy)butanamido)propan-2-yl)benzoic acid]
5.37 | CC(C)[C@@H](OCc1ccc(C2CC2)cc1)C(=O)N[C@@H](C)c1ccc(C(=O)O)cc1 [Example 30, 4-((S)-1-((R)-2-((4-cyclopropylbenzyl)oxy)-3-methylbutanamido)ethyl)benzoic acid]
> 67.6 | COc1cccc(COC(C(=O)N[C@@H](C)c2ccc(C(=O)O)cc2)C(C)C)c1 (mixture of isomers) [Example 3, 4-((1S)-1-(2-((3-methoxybenzyl)oxy)-3-methylbutanamido)ethyl)benzoic acid]
9.77 | CC(C)[C@@H](OCc1ccc(C(F)(F)F)cc1)C(=O)NCc1ccc(C(=O)O)cc1 [Example 59, (R)-4-((3-methyl-2-((4-(trifluoromethyl)benzyl)oxy)butanamido)methyl)benzoic acid]
79.4 | CS(=O)(=O)c1cccc(COC(C(=O)NC2(c3ccc(C(=O)O)cc3)CC2)C2CCC2)c1 (centres unmarked) [Example 95, 4-(1-(2-cyclobutyl-2-((3-(methylsulfonyl)benzyl)oxy)acetamido)cyclopropyl)benzoic acid]
0.891 | CC(C)[C@@H](OCc1ccc(C(F)(F)F)cc1)C(=O)NC1(c2ccc(C(=O)O)cc2)CC1 [Example 2, (R)-4-(1-(3-methyl-2-((4-(trifluoromethyl)benzyl)oxy)butanamido)cyclopropyl)benzoic acid]
> 12900 | CC(C)[C@@H](OCc1cccc(C#N)c1)C(=O)NC1(c2ccc(C(=O)O)cc2)CC1 [Example 54, (R)-4-(1-(2-((3-cyanobenzyl)oxy)-3-methylbutanamido)cyclopropyl)benzoic acid]
0.851 | O=C(O)c1ccc(C2(NC(=O)[C@H](OCc3cccc(OC(F)F)c3)C3CCC3)CC2)cc1 [Example 101, (R)-4-(1-(2-cyclobutyl-2-((3-(difluoromethoxy)benzyl)oxy)acetamido)cyclopropyl)benzoic acid]
6.61 | O=C(O)c1ccc(C2(NC(=O)C(OCc3ccc(C(F)(F)F)cc3)C3CCC3)CC2)cc1 (centres unmarked) [Example 96, 4-(1-(2-cyclobutyl-2-((4-(trifluoromethyl)benzyl)oxy)acetamido)cyclopropyl)benzoic acid]
11.2 | CC(C)[C@@H](OCc1ccc(C(F)F)nc1)C(=O)NC1(c2ccc(C(=O)O)cc2)CC1 [Example 84, (R)-4-(1-(2-((6-(difluoromethyl)pyridin-3-yl)methoxy)-3-methylbutanamido)cyclopropyl)benzoic acid]
5.01 | C[C@H](NC(=O)C(OCc1ccc(C(F)(F)F)cc1)C1CCC1)c1ccc(C(=O)O)cc1 (single isomer, unassigned) [Example 94]
0.055 | CC(C)[C@@H](OCc1ccc(F)c(C2CC2)c1)C(=O)N[C@@H](C)c1ccc(C(=O)O)cc1 [Example 85, 4-((S)-1-((R)-2-((3-cyclopropyl-4-fluorobenzyl)oxy)-3-methylbutanamido)ethyl)benzoic acid]
8.71 | CC(C)[C@@H](OCc1cccc(S(C)(=O)=O)c1)C(=O)N[C@@H](C)c1ccc(C(=O)O)cc1 [Example 8, 4-((S)-1-((R)-3-methyl-2-((3-(methylsulfonyl)benzyl)oxy)butanamido)ethyl)benzoic acid]
